# Results published in ChEMBL document CHEMBL1150275, “Pharmacological and pharmacokinetic characterization of 2-piperazine-alpha-isopropyl benzylamine derivatives as melanocortin-4 receptor antagonists” (Bioorg Med Chem, 2008).
# How the values were obtained:
# [1] = AUC in mouse at 10 mg/kg, po; type: ADME, organism-based; design: dose 10 mg/kg, route oral; conditions: plasma
# [2] = Volume of distribution in mouse at 5 mg/kg, iv and 10 mg/kg, po; type: ADME, organism-based; conditions: in vivo
# [3] = Cmax in mouse at 5 mg/kg, iv and 10 mg/kg, po; type: ADME, organism-based; conditions: in vivo
# [4] = Ratio of drug level in brain to plasma in mouse at 5 mg/kg, iv after 1 hr; type: ADME, organism-based; design: dose 5 mg/kg, route intravenous
# [5] = Oral bioavailability in mouse at 10 mg/kg; type: ADME, organism-based; conditions: in vivo
# [6] = Tmax in mouse at 5 mg/kg, iv and 10 mg/kg, po; type: ADME, organism-based; conditions: in vivo
# physchem = conditions: buffer, pH 7.4
# Caco-2 = assay: Apparent permeability across human Caco-2 cells; type: ADME, cell-based
# [7] = Drug level in mouse brain at 5 mg/kg, iv after 4 hrs; type: ADME, organism-based; design: dose 5 mg/kg, route intravenous; conditions: read-out: Drug uptake
# [8] = Ratio of drug level in brain to plasma in mouse at 5 mg/kg, iv after 4 hrs; type: ADME, organism-based; design: dose 5 mg/kg, route intravenous
# [9] = Drug level in mouse brain at 5 mg/kg, iv after 1 hr; type: ADME, organism-based; design: dose 5 mg/kg, route intravenous; conditions: read-out: Drug uptake
smiles,measurement,setting,value
CC(C)[C@H](NC(=O)CCN(C)C)c1cc(Cl)ccc1N1CCN(C(=O)[C@H](C)Cc2ccc(Cl)cc2)CC1,AUC,[1],600 ng·h/mL
same,Vd,[2],11 L/kg
same,Cmax,[3],109 ng/mL
same,Kp at 1 h,[4],1.9
same,bioavailability,[5],19%
same,Tmax,[6],1 h
same,logD,physchem,4
same,Papp,Caco-2,9 ×10⁻⁶ cm/s
same,concentration at 4 h,[7],176 ng/g
same,Kp at 4 h,[8],2.3
same,concentration at 1 h,[9],580 ng/g
CNCC(=O)N[C@H](c1cccc(F)c1N1CCN(C(=O)[C@H](C)Cc2ccc(Cl)cc2)CC1)C(C)C,AUC,[1],813 ng·h/mL
same,Vd,[2],19 L/kg
same,Cmax,[3],165 ng/mL
same,Kp at 1 h,[4],0.6
same,bioavailability,[5],21%
same,Tmax,[6],0.5 h
same,logD,physchem,2.4
same,Papp,Caco-2,1 ×10⁻⁶ cm/s
same,concentration at 4 h,[7],126 ng/g
same,Kp at 4 h,[8],1.1
same,concentration at 1 h,[9],231 ng/g
CNCC(=O)N[C@H](c1cccc(F)c1N1CCN(C(=O)[C@H](C)Cc2ccc(Cl)cc2OC)CC1)C(C)C,AUC,[1],374 ng·h/mL
same,Vd,[2],29 L/kg
same,Cmax,[3],114 ng/mL
same,Kp at 1 h,[4],0.5
same,bioavailability,[5],12%
same,Tmax,[6],0.5 h
same,logD,physchem,3.1
same,Papp,Caco-2,2 ×10⁻⁶ cm/s
same,concentration at 4 h,[7],107 ng/g
same,Kp at 4 h,[8],1.7
CNCCN[C@H](c1cccc(F)c1N1CCN(C(=O)[C@H](C)Cc2ccc(Cl)cc2)CC1)C(C)C,AUC,[1],1630 ng·h/mL
same,Vd,[2],52 L/kg
same,Cmax,[3],166 ng/mL
same,Kp at 1 h,[4],0.4
same,bioavailability,[5],47%
same,Tmax,[6],0.5 h
same,logD,physchem,2.6
same,Papp,Caco-2,0.4 ×10⁻⁶ cm/s
same,concentration at 4 h,[7],62 ng/g
same,Kp at 4 h,[8],1.2
same,concentration at 1 h,[9],53 ng/g
COc1cc(Cl)ccc1C[C@@H](C)C(=O)N1CCN(c2ccc(Cl)cc2[C@@H](NC(=O)C2CNC2)C(C)C)CC1,AUC,[1],422 ng·h/mL
same,Vd,[2],8.2 L/kg
same,Cmax,[3],151 ng/mL
same,Kp at 1 h,[4],0.1
same,bioavailability,[5],5.8%
same,Tmax,[6],2 h
same,logD,physchem,2.3
same,Papp,Caco-2,0.3 ×10⁻⁶ cm/s
same,concentration at 4 h,[7],39 ng/g
same,Kp at 4 h,[8],0.4
same,concentration at 1 h,[9],61 ng/g
CC(C)[C@H](NC(=O)C1CN(C)C1)c1cc(Cl)ccc1N1CCN(C(=O)[C@H](C)Cc2ccc(Cl)cc2)CC1,AUC,[1],9160 ng·h/mL
same,Vd,[2],3 L/kg
same,Cmax,[3],762 ng/mL
same,Kp at 1 h,[4],0.1
same,bioavailability,[5],58%
same,Tmax,[6],6 h
same,logD,physchem,3
same,Papp,Caco-2,2 ×10⁻⁶ cm/s
same,concentration at 4 h,[7],77 ng/g
same,Kp at 4 h,[8],0.1
same,concentration at 1 h,[9],79 ng/g
COc1cc(Cl)ccc1C[C@@H](C)C(=O)N1CCN(c2c(F)cccc2[C@@H](NC(=O)C2CNC2)C(C)C)CC1,AUC,[1],336 ng·h/mL
same,Vd,[2],10 L/kg
same,Cmax,[3],104 ng/mL
same,Kp at 1 h,[4],0.1
same,bioavailability,[5],5.6%
same,Tmax,[6],2 h
same,logD,physchem,2.6
same,Papp,Caco-2,0.2 ×10⁻⁶ cm/s
same,concentration at 4 h,[7],32 ng/g
same,Kp at 4 h,[8],0.4
same,concentration at 1 h,[9],51 ng/g
CNCC(=O)N[C@H](c1cccc(F)c1N1CCN(C(=O)[C@H](C)Cc2ccc(Cl)cc2Cl)CC1)C(C)C,AUC,[1],1010 ng·h/mL
same,Vd,[2],13 L/kg
same,Cmax,[3],172 ng/mL
same,Kp at 1 h,[4],0.3
same,bioavailability,[5],23%
same,Tmax,[6],2 h
same,logD,physchem,4.3
same,Papp,Caco-2,2 ×10⁻⁶ cm/s
same,concentration at 4 h,[7],71 ng/g
same,Kp at 4 h,[8],0.5
same,concentration at 1 h,[9],85 ng/g
CNCC(=O)N[C@H](c1cc(Cl)ccc1N1CCN(C(=O)[C@H](C)Cc2ccc(Cl)cc2)CC1)C(C)C,AUC,[1],232 ng·h/mL
same,Vd,[2],16 L/kg
same,Cmax,[3],88 ng/mL
same,Kp at 1 h,[4],0.7
same,bioavailability,[5],13%
same,Tmax,[6],0.5 h
same,logD,physchem,4.3
same,concentration at 4 h,[7],62 ng/g
same,Kp at 4 h,[8],1.5
